PubChem BioAssay AID1963849 (Molecular Pharmacology Branch, DTP, NCI, 2024)

Test system: 299254-011-R-J1-PDC complex spheroid viability
Test: Anticancer human tumor 299254-011-R-J1-PDC patient-derived melanoma cell line growth inhibition [POLQ]
Conditions: for IC50: curve of first compound; for viability, T/C: stronger effect = lower value
Outline: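 PDC + HUVEC + MSC complex spheroids; POLQ inhibitors ± partner drugs; top conc. at/near clinical Cmax, else 10 microM (SN-38 1 microM), half-log dilutions; 37 degrees C, 5% CO2.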

[1] = second compound 0.0316 µM, first compound 0.0316 µM
[2] = second compound 0.0316 µM, first compound 0.1 µM
[3] = second compound 0.0316 µM, first compound 0.316 µM
[4] = second compound 0.0316 µM, first compound 1 µM
[5] = second compound 0.0316 µM, first compound 3.16 µM
[6] = second compound 0.0316 µM, first compound 10 µM
[7] = second compound 0.1 µM, first compound 0.0316 µM
[8] = second compound 0.1 µM, first compound 0.1 µM
[9] = second compound 0.1 µM, first compound 0.316 µM
[10] = second compound 0.1 µM, first compound 1 µM
[11] = second compound 0.1 µM, first compound 3.16 µM
[12] = second compound 0.1 µM, first compound 10 µM
[13] = second compound 0.316 µM, first compound 0.0316 µM
[14] = second compound 0.316 µM, first compound 0.1 µM
[15] = second compound 0.316 µM, first compound 0.316 µM
[16] = second compound 0.316 µM, first compound 1 µM
[17] = second compound 0.316 µM, first compound 3.16 µM
[18] = second compound 0.316 µM, first compound 10 µM
[19] = second compound 1 µM, first compound 0.0316 µM
[20] = second compound 1 µM, first compound 0.1 µM
[21] = second compound 1 µM, first compound 0.316 µM
[22] = second compound 1 µM, first compound 1 µM
[23] = second compound 1 µM, first compound 3.16 µM
[24] = second compound 1 µM, first compound 10 µM
[25] = second compound 3.16 µM, first compound 0.0316 µM
[26] = second compound 3.16 µM, first compound 0.1 µM
[27] = second compound 3.16 µM, first compound 0.316 µM
[28] = second compound 3.16 µM, first compound 1 µM
[29] = second compound 3.16 µM, first compound 3.16 µM
[30] = second compound 3.16 µM, first compound 10 µM
[31] = second compound 10 µM, first compound 0.0316 µM
[32] = second compound 10 µM, first compound 0.1 µM
[33] = second compound 10 µM, first compound 0.316 µM
[34] = second compound 10 µM, first compound 1 µM
[35] = second compound 10 µM, first compound 3.16 µM
[36] = second compound 10 µM, first compound 10 µM
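Further: spheroids exposed to drugs for one week before measurement.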
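Wherever viability, T/C is given: percent viability relative to DMSO vehicle control taken as 100%.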

Compound: CC1COCCN1c1cc(C2(O)CC3CCC(C2)O3)c2cnn(-c3ccn[nH]3)c2n1 (stereo not given) + Cc1cccc(N(C)C(=O)C2C(O)CCN2c2nc(C)cc(C(F)(F)F)c2C#N)c1
- IC50 (second compound 0.0316 µM): 0.182 µM
- IC50 (second compound 0.1 µM): 0.224 µM
- IC50 (second compound 0.316 µM): 0.234 µM
- IC50 (second compound 1 µM): 0.153 µM
- IC50 (second compound 3.16 µM): 0.169 µM
- IC50 (second compound 10 µM): 0.0815 µM
- viability, T/C [1]: 76.1%
- viability, T/C [2]: 65.7%
- viability, T/C [3]: 35.2%
- viability, T/C [4]: 21.1%
- viability, T/C [5]: 17.5%
- viability, T/C [6]: 10.6%
- viability, T/C [7]: 93.9%
- viability, T/C [8]: 69.5%
- viability, T/C [9]: 39.1%
- viability, T/C [10]: 27.4%
- viability, T/C [11]: 17.4%
- viability, T/C [12]: 9.48%
- viability, T/C [13]: 81.4%
- viability, T/C [14]: 64.7%
- viability, T/C [15]: 46.5%
- viability, T/C [16]: 22.8%
- viability, T/C [17]: 18.6%
- viability, T/C [18]: 7.95%
- viability, T/C [19]: 99.5%
- viability, T/C [20]: 56.8%
- viability, T/C [21]: 36%
- viability, T/C [22]: 24.1%
- viability, T/C [23]: 15.5%
- viability, T/C [24]: 10.2%
- viability, T/C [25]: 97.1%
- viability, T/C [26]: 61.8%
- viability, T/C [27]: 35.5%
- viability, T/C [28]: 22.1%
- viability, T/C [29]: 14.2%
- viability, T/C [30]: 10.6%
- viability, T/C [31]: 73.5%
- viability, T/C [32]: 44.5%
- viability, T/C [33]: 27.2%
- viability, T/C [34]: 20.2%
- viability, T/C [35]: 14.2%
- viability, T/C [36]: 9.04%

Compound: CCc1cc2c(N3CCc4c(cc(Cn5ccnc5)cc4-c4cn(C)nc4C(F)(F)F)C3=O)cc(C)nc2c(OC)n1 + Cc1cccc(N(C)C(=O)C2C(O)CCN2c2nc(C)cc(C(F)(F)F)c2C#N)c1
- IC50 (second compound 0.0316 µM): > 10 µM
- IC50 (second compound 0.1 µM): > 10 µM
- IC50 (second compound 0.316 µM): > 10 µM
- IC50 (second compound 1 µM): > 10 µM
- IC50 (second compound 3.16 µM): > 10 µM
- IC50 (second compound 10 µM): > 10 µM
- viability, T/C [1]: 96.3%
- viability, T/C [2]: 92.5%
- viability, T/C [3]: 96.6%
- viability, T/C [4]: 104%
- viability, T/C [5]: 94.8%
- viability, T/C [6]: 61.3%
- viability, T/C [7]: 109%
- viability, T/C [8]: 109%
- viability, T/C [9]: 90.3%
- viability, T/C [10]: 94.8%
- viability, T/C [11]: 80.9%
- viability, T/C [12]: 71.3%
- viability, T/C [13]: 108%
- viability, T/C [14]: 115%
- viability, T/C [15]: 121%
- viability, T/C [16]: 106%
- viability, T/C [17]: 87.9%
- viability, T/C [18]: 65.3%
- viability, T/C [19]: 105%
- viability, T/C [20]: 100%
- viability, T/C [21]: 99.7%
- viability, T/C [22]: 90.2%
- viability, T/C [23]: 88.3%
- viability, T/C [24]: 58.5%
- viability, T/C [25]: 117%
- viability, T/C [26]: 98.3%
- viability, T/C [27]: 95.3%
- viability, T/C [28]: 84.5%
- viability, T/C [29]: 80.2%
- viability, T/C [30]: 70.2%
- viability, T/C [31]: 109%
- viability, T/C [32]: 117%
- viability, T/C [33]: 106%
- viability, T/C [34]: 82.2%
- viability, T/C [35]: 77.8%
- viability, T/C [36]: 58.6%

Compound: CCc1cc2c(N3CCc4c(cc(Cn5ccnc5)cc4-c4cn(C)nc4C(F)(F)F)C3=O)ccnc2c(OC)n1 + Cc1cccc(N(C)C(=O)C2C(O)CCN2c2nc(C)cc(C(F)(F)F)c2C#N)c1
- IC50 (second compound 0.0316 µM): > 10 µM
- IC50 (second compound 0.1 µM): > 10 µM
- IC50 (second compound 0.316 µM): > 10 µM
- IC50 (second compound 1 µM): > 10 µM
- IC50 (second compound 3.16 µM): > 10 µM
- IC50 (second compound 10 µM): > 10 µM
- viability, T/C [1]: 97.6%
- viability, T/C [2]: 119%
- viability, T/C [3]: 98.9%
- viability, T/C [4]: 106%
- viability, T/C [5]: 109%
- viability, T/C [6]: 80.4%
- viability, T/C [7]: 98.7%
- viability, T/C [8]: 102%
- viability, T/C [9]: 99.7%
- viability, T/C [10]: 99.4%
- viability, T/C [11]: 99.1%
- viability, T/C [12]: 86.1%
- viability, T/C [13]: 98.5%
- viability, T/C [14]: 91.2%
- viability, T/C [15]: 116%
- viability, T/C [16]: 112%
- viability, T/C [17]: 84.2%
- viability, T/C [18]: 72.8%
- viability, T/C [19]: 110%
- viability, T/C [20]: 96.9%
- viability, T/C [21]: 113%
- viability, T/C [22]: 107%
- viability, T/C [23]: 91%
- viability, T/C [24]: 86%
- viability, T/C [25]: 106%
- viability, T/C [26]: 96.9%
- viability, T/C [27]: 101%
- viability, T/C [28]: 105%
- viability, T/C [29]: 95.5%
- viability, T/C [30]: 76.4%
- viability, T/C [31]: 94%
- viability, T/C [32]: 112%
- viability, T/C [33]: 105%
- viability, T/C [34]: 82.1%
- viability, T/C [35]: 75.7%
- viability, T/C [36]: 79%

Compound: O=C(Nc1ccc(O)c(NS(=O)(=O)c2ccc(F)cc2)c1)c1ccc(-c2ccccc2)cc1 + Cc1cccc(N(C)C(=O)C2C(O)CCN2c2nc(C)cc(C(F)(F)F)c2C#N)c1
- IC50 (second compound 0.0316 µM): > 10 µM
- IC50 (second compound 0.1 µM): 9.45 µM
- IC50 (second compound 0.316 µM): > 10 µM
- IC50 (second compound 1 µM): > 10 µM
- IC50 (second compound 3.16 µM): 9.75 µM
- IC50 (second compound 10 µM): 8.66 µM
- viability, T/C [1]: 102%
- viability, T/C [2]: 99.2%
- viability, T/C [3]: 92.7%
- viability, T/C [4]: 104%
- viability, T/C [5]: 99.3%
- viability, T/C [6]: 54.8%
- viability, T/C [7]: 105%
- viability, T/C [8]: 107%
- viability, T/C [9]: 98%
- viability, T/C [10]: 107%
- viability, T/C [11]: 96.3%
- viability, T/C [12]: 47.3%
- viability, T/C [13]: 102%
- viability, T/C [14]: 115%
- viability, T/C [15]: 98.2%
- viability, T/C [16]: 123%
- viability, T/C [17]: 93.7%
- viability, T/C [18]: 56.2%
- viability, T/C [19]: 106%
- viability, T/C [20]: 111%
- viability, T/C [21]: 109%
- viability, T/C [22]: 104%
- viability, T/C [23]: 90.7%
- viability, T/C [24]: 53%
- viability, T/C [25]: 108%
- viability, T/C [26]: 103%
- viability, T/C [27]: 101%
- viability, T/C [28]: 94.8%
- viability, T/C [29]: 100%
- viability, T/C [30]: 48.9%
- viability, T/C [31]: 98.7%
- viability, T/C [32]: 98%
- viability, T/C [33]: 93.6%
- viability, T/C [34]: 110%
- viability, T/C [35]: 83.4%
- viability, T/C [36]: 45.2%

Compound: COc1cccc2c1C(=O)c1c(O)c3c(c(O)c1C2=O)CC(O)(C(=O)CO)CC3OC1CC(N)C(O)C(C)O1 (stereo not given) + Nc1ccc(C#CCN(C(=O)Cc2ncc(C(F)(F)F)cc2C(F)(F)F)c2ccc(F)cc2)nn1
- IC50 (second compound 0.0316 µM): 1.07 µM
- IC50 (second compound 0.1 µM): 0.927 µM
- IC50 (second compound 0.316 µM): 1.02 µM
- IC50 (second compound 1 µM): 0.832 µM
- IC50 (second compound 3.16 µM): 0.75 µM
- IC50 (second compound 10 µM): 0.535 µM
- viability, T/C [1]: 120%
- viability, T/C [2]: 85.1%
- viability, T/C [3]: 83.1%
- viability, T/C [4]: 56.5%
- viability, T/C [5]: 17.8%
- viability, T/C [6]: 1.11%
- viability, T/C [7]: 89.8%
- viability, T/C [8]: 94.6%
- viability, T/C [9]: 63.5%
- viability, T/C [10]: 54.5%
- viability, T/C [11]: 17.9%
- viability, T/C [12]: 1.22%
- viability, T/C [13]: 93.1%
- viability, T/C [14]: 75.2%
- viability, T/C [15]: 65.9%
- viability, T/C [16]: 61.2%
- viability, T/C [17]: 16%
- viability, T/C [18]: 2.99%
- viability, T/C [19]: 86.6%
- viability, T/C [20]: 72.2%
- viability, T/C [21]: 87.2%
- viability, T/C [22]: 43.9%
- viability, T/C [23]: 9.65%
- viability, T/C [24]: 0.5%
- viability, T/C [25]: 94.9%
- viability, T/C [26]: 85.7%
- viability, T/C [27]: 77.1%
- viability, T/C [28]: 42.7%
- viability, T/C [29]: 0.52%
- viability, T/C [30]: 2.06%
- viability, T/C [31]: 77.7%
- viability, T/C [32]: 85.9%
- viability, T/C [33]: 65.3%
- viability, T/C [34]: 30.5%
- viability, T/C [35]: 0.39%
- viability, T/C [36]: 2.85%
